This test concerns the target Programmed cell death protein 1/Programmed cell death 1 ligand 1 (Homo sapiens, UniProt Q9NZQ7). Kind of test: Inhibition of interaction of PD-1 (unknown origin) expressed in Jurkat T cells co-transfected with NFAT response element/PD-L1 (unknown origin) expressed in CHO-K1 cells by reporter bioassay. The format is cell-based.

Molecules are shown by their SMILES.

We go through 1 compound from ChEMBL document CHEMBL5532729, “Nonsymmetrically Substituted 1,1'-Biphenyl-Based Small Molecule Inhibitors of the PD-1/PD-L1 Interaction” (ACS Med Chem Lett, 2024).

Usually EC50 stands for the concentration that produces a half-maximal response.

Sequence of Programmed cell death protein 1/Programmed cell death 1 ligand 1 (Q15116 whole entry): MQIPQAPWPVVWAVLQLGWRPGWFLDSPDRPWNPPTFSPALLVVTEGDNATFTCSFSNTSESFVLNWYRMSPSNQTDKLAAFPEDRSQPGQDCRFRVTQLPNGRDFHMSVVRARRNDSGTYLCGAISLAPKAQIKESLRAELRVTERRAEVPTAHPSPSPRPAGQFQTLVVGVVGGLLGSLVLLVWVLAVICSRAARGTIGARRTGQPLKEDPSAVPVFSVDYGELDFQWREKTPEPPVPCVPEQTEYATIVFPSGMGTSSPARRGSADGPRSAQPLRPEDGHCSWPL
Sequence of Programmed cell death protein 1/Programmed cell death 1 ligand 1 (Q9NZQ7 whole entry): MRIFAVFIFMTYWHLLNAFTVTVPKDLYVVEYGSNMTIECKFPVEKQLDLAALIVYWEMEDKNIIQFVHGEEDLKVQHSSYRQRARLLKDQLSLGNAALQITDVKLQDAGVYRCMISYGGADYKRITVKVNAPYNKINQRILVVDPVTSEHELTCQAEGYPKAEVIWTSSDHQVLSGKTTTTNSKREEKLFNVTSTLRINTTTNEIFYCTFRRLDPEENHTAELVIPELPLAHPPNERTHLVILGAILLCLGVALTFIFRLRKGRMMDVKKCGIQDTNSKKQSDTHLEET

Consider `Cc1c(NC(=O)c2ccc(CNCCO)cn2)cccc1-c1cccc(NC(=O)c2ccc(CNCCO)cn2)c1C`, for which the EC50 amounted to 17 nM.
